Test results: ChEMBL document CHEMBL3885881, “DrugMatrix”

Species: Rattus norvegicus
Test: DrugMatrix - Regimen: Daily Repeat
Assay type: toxicity, organism-based, Sprague-Dawley
Parameters: regimen Daily Repeat, gender Male, age 6-8 weeks
Details: in vivo, po, route oral GAVAGE, […]; for ABSOLUTE BASOPHIL / ABSOLUTE EOSINOPHIL / ABSOLUTE LYMPHOCYTE / ABSOLUTE MONOCYTE / ABSOLUTE SEGMENTED NEUTROPHIL / BASOPHIL / EOSINOPHIL / ERYTHROCYTE COUNT / HEMATOCRIT / HEMOGLOBIN / LEUKOCYTE COUNT / LYMPHOCYTE / MEAN CORPUSCULAR HEMOGLOBIN / MEAN CORPUSCULAR HEMOGLOBIN CONCENTRATION / MEAN CORPUSCULAR VOLUME / MONOCYTE / NEUTROPHIL / NUCLEATED RED BLOOD CELLS / PLATELET COUNT: tissue Blood; for ALANINE AMINOTRANSFERASE / ALBUMIN / ALKALINE PHOSPHATASE / ASPARTATE AMINOTRANSFERASE / BLOOD UREA NITROGEN / CARBON DIOXIDE / CHLORIDE / CHOLESTEROL / CREATINE PHOSPHOKINASE / CREATININE / GLUCOSE / LACTATE DEHYDROGENASE / LIPASE / PHOSPHORUS / POTASSIUM / SODIUM / TOTAL BILIRUBIN / TOTAL PROTEIN / URIC ACID: tissue Plasma
[1] = 20 mg/kg, 72 h, dose level Low, time 3 day
[2] = 20 mg/kg, 120 h, dose level Low, time 5 day
[3] = 62 mg/kg, 72 h, dose level High, time 3 day
[4] = 62 mg/kg, 120 h, dose level High, time 5 day

SMILES: CCCSc1ccc2nc(NC(=O)OC)[nH]c2c1 [ALBENDAZOLE]
- ABSOLUTE BASOPHIL [1]: 0 CELLS/uL
- ABSOLUTE EOSINOPHIL [1]: 0 CELLS/uL
- ABSOLUTE LYMPHOCYTE [1]: 12808 CELLS/uL
- ABSOLUTE MONOCYTE [1]: 184.67 CELLS/uL
- ABSOLUTE SEGMENTED NEUTROPHIL [1]: 1574 CELLS/uL
- BASOPHIL [1]: 0%
- EOSINOPHIL [1]: 0%
- ERYTHROCYTE COUNT [1]: 5.37 x10E6/uL
- HEMATOCRIT [1]: 33.33%
- HEMOGLOBIN [1]: 13.47 G/DL
- LEUKOCYTE COUNT [1]: 14.57 x10E3/uL
- LYMPHOCYTE [1]: 88.67%
- MEAN CORPUSCULAR HEMOGLOBIN [1]: 25.17 pg
- MEAN CORPUSCULAR HEMOGLOBIN CONCENTRATION [1]: 40.47 G/DL
- MEAN CORPUSCULAR VOLUME [1]: 62.17 fL
- MONOCYTE [1]: 1.33%
- NEUTROPHIL [1]: 10%
- NUCLEATED RED BLOOD CELLS [1]: 0.33 /100WBC
- PLATELET COUNT [1]: 1157.33 x10E3/uL
- ALANINE AMINOTRANSFERASE [1]: 56.33 u/L
- ALBUMIN [1]: 3.6 G/DL
- ALKALINE PHOSPHATASE [1]: 430 u/L
- ASPARTATE AMINOTRANSFERASE [1]: 87.33 u/L
- BLOOD UREA NITROGEN [1]: 13.33 mg/dL
- CARBON DIOXIDE [1]: 24.67 mmol/L
- CHLORIDE [1]: 101 MEQ/L
- CHOLESTEROL [1]: 64 mg/dL
- CREATINE PHOSPHOKINASE [1]: 390.67 u/L
- CREATININE [1]: 0.21 mg/dL
- GLUCOSE [1]: 220.67 mg/dL
- LACTATE DEHYDROGENASE [1]: 112.33 u/L
- LIPASE [1]: 10.67 u/L
- PHOSPHORUS [1]: 12.2 mg/dL
- POTASSIUM [1]: 6.27 MEQ/L
- SODIUM [1]: 141.23 MEQ/L
- TOTAL BILIRUBIN [1]: 0.2 mg/dL
- TOTAL PROTEIN [1]: 5.2 G/DL
- URIC ACID [1]: 2.23 mg/dL
- ABSOLUTE BASOPHIL [2]: 0 CELLS/uL
- ABSOLUTE EOSINOPHIL [2]: 69.33 CELLS/uL
- ABSOLUTE LYMPHOCYTE [2]: 7738 CELLS/uL
- ABSOLUTE MONOCYTE [2]: 149.67 CELLS/uL
- ABSOLUTE SEGMENTED NEUTROPHIL [2]: 776.33 CELLS/uL
- BASOPHIL [2]: 0%
- EOSINOPHIL [2]: 0.67%
- ERYTHROCYTE COUNT [2]: 4.93 x10E6/uL
- HEMATOCRIT [2]: 31.3%
- HEMOGLOBIN [2]: 12.87 G/DL
- LEUKOCYTE COUNT [2]: 8.73 x10E3/uL
- LYMPHOCYTE [2]: 89.33%
- MEAN CORPUSCULAR HEMOGLOBIN [2]: 26.07 pg
- MEAN CORPUSCULAR HEMOGLOBIN CONCENTRATION [2]: 41.1 G/DL
- MEAN CORPUSCULAR VOLUME [2]: 63.4 fL
- MONOCYTE [2]: 1.67%
- NEUTROPHIL [2]: 8.33%
- NUCLEATED RED BLOOD CELLS [2]: 0 /100WBC
- PLATELET COUNT [2]: 1525.33 x10E3/uL
- ALANINE AMINOTRANSFERASE [2]: 53.67 u/L
- ALBUMIN [2]: 4.03 G/DL
- ALKALINE PHOSPHATASE [2]: 375.33 u/L
- ASPARTATE AMINOTRANSFERASE [2]: 79 u/L
- BLOOD UREA NITROGEN [2]: 15 mg/dL
- CARBON DIOXIDE [2]: 26 mmol/L
- CHLORIDE [2]: 102.67 MEQ/L
- CHOLESTEROL [2]: 67 mg/dL
- CREATINE PHOSPHOKINASE [2]: 225.67 u/L
- CREATININE [2]: 0.21 mg/dL
- GLUCOSE [2]: 161 mg/dL
- LACTATE DEHYDROGENASE [2]: 141 u/L
- LIPASE [2]: 11.67 u/L
- PHOSPHORUS [2]: 10.97 mg/dL
- POTASSIUM [2]: 5.64 MEQ/L
- SODIUM [2]: 141.93 MEQ/L
- TOTAL BILIRUBIN [2]: 0.1 mg/dL
- TOTAL PROTEIN [2]: 5.5 G/DL
- URIC ACID [2]: 1.37 mg/dL
- ABSOLUTE BASOPHIL [3]: 0 CELLS/uL
- ABSOLUTE EOSINOPHIL [3]: 0 CELLS/uL
- ABSOLUTE LYMPHOCYTE [3]: 10254.67 CELLS/uL
- ABSOLUTE MONOCYTE [3]: 0 CELLS/uL
- ABSOLUTE SEGMENTED NEUTROPHIL [3]: 712 CELLS/uL
- BASOPHIL [3]: 0%
- EOSINOPHIL [3]: 0%
- ERYTHROCYTE COUNT [3]: 5.64 x10E6/uL
- HEMATOCRIT [3]: 34.47%
- HEMOGLOBIN [3]: 13.47 G/DL
- LEUKOCYTE COUNT [3]: 10.97 x10E3/uL
- LYMPHOCYTE [3]: 94%
- MEAN CORPUSCULAR HEMOGLOBIN [3]: 24 pg
- MEAN CORPUSCULAR HEMOGLOBIN CONCENTRATION [3]: 39.13 G/DL
- MEAN CORPUSCULAR VOLUME [3]: 61.27 fL
- MONOCYTE [3]: 0%
- NEUTROPHIL [3]: 6%
- NUCLEATED RED BLOOD CELLS [3]: 0 /100WBC
- PLATELET COUNT [3]: 1007.33 x10E3/uL
- ALANINE AMINOTRANSFERASE [3]: 44 u/L
- ALBUMIN [3]: 4.13 G/DL
- ALKALINE PHOSPHATASE [3]: 381 u/L
- ASPARTATE AMINOTRANSFERASE [3]: 99.67 u/L
- BLOOD UREA NITROGEN [3]: 11 mg/dL
- CARBON DIOXIDE [3]: 27.33 mmol/L
- CHLORIDE [3]: 101.33 MEQ/L
- CHOLESTEROL [3]: 99 mg/dL
- CREATINE PHOSPHOKINASE [3]: 278 u/L
- CREATININE [3]: 0.13 mg/dL
- GLUCOSE [3]: 161.33 mg/dL
- LACTATE DEHYDROGENASE [3]: 198.67 u/L
- LIPASE [3]: 11.67 u/L
- PHOSPHORUS [3]: 10.53 mg/dL
- POTASSIUM [3]: 5.98 MEQ/L
- SODIUM [3]: 141.53 MEQ/L
- TOTAL BILIRUBIN [3]: 0.17 mg/dL
- TOTAL PROTEIN [3]: 5.8 G/DL
- URIC ACID [3]: 1.43 mg/dL
- ABSOLUTE BASOPHIL [4]: 0 CELLS/uL
- ABSOLUTE EOSINOPHIL [4]: 0 CELLS/uL
- ABSOLUTE LYMPHOCYTE [4]: 7019.67 CELLS/uL
- ABSOLUTE MONOCYTE [4]: 23.67 CELLS/uL
- ABSOLUTE SEGMENTED NEUTROPHIL [4]: 190 CELLS/uL
- BASOPHIL [4]: 0%
- EOSINOPHIL [4]: 0%
- ERYTHROCYTE COUNT [4]: 5.03 x10E6/uL
- HEMATOCRIT [4]: 31%
- HEMOGLOBIN [4]: 12.5 G/DL
- LEUKOCYTE COUNT [4]: 7.23 x10E3/uL
- LYMPHOCYTE [4]: 97%
- MEAN CORPUSCULAR HEMOGLOBIN [4]: 24.9 pg
- MEAN CORPUSCULAR HEMOGLOBIN CONCENTRATION [4]: 40.33 G/DL
- MEAN CORPUSCULAR VOLUME [4]: 61.77 fL
- MONOCYTE [4]: 0.33%
- NEUTROPHIL [4]: 2.67%
- NUCLEATED RED BLOOD CELLS [4]: 0 /100WBC
- PLATELET COUNT [4]: 1425 x10E3/uL
- ALANINE AMINOTRANSFERASE [4]: 29.33 u/L
- ALBUMIN [4]: 4.03 G/DL
- ALKALINE PHOSPHATASE [4]: 247.67 u/L
- ASPARTATE AMINOTRANSFERASE [4]: 66.33 u/L
- BLOOD UREA NITROGEN [4]: 12.33 mg/dL
- CARBON DIOXIDE [4]: 24.33 mmol/L
- CHLORIDE [4]: 101.33 MEQ/L
- CHOLESTEROL [4]: 90.67 mg/dL
- CREATINE PHOSPHOKINASE [4]: 237.67 u/L
- CREATININE [4]: 0.11 mg/dL
- GLUCOSE [4]: 141.33 mg/dL
- LACTATE DEHYDROGENASE [4]: 106.33 u/L
- LIPASE [4]: 11 u/L
- PHOSPHORUS [4]: 11.33 mg/dL
- POTASSIUM [4]: 6.31 MEQ/L
- SODIUM [4]: 141.93 MEQ/L
- TOTAL BILIRUBIN [4]: 0.27 mg/dL
- TOTAL PROTEIN [4]: 5.37 G/DL
- URIC ACID [4]: 1.77 mg/dL
